Data published in DBAASP.
Values after ≈ are worked out from the molar mass of the structure shown.

Columns and labels:
Experiment in all cases: ≥ marks a high value that may be exact or a test limit, other limits are often not marked, values filed in µg/mL are converted to µM
[1] = system: Bacillus cereus
[2] = system: Escherichia coli
[3] = system: Staphylococcus aureus
[4] = system: Bacillus subtilis ATCC 6633
[5] = system: Escherichia coli ATCC 25922
[6] = system: Klebsiella pneumoniae ATCC 700603
[7] = system: Pseudomonas aeruginosa ATCC 27853
[8] = system: Staphylococcus aureus ATCC 25923
[9] = system: Staphylococcus epidermidis ATCC 12228
[10] = system: Candida albicans ATCC 10231
[11] = system: Staphylococcus aureus ATCC 29213

CC(C)C[C@H](NC(=O)[C@@H](N)Cc1ccccc1)C(=O)NCC(=O)N[C@@H](CCCCN)C(=O)N[C@H](C(=O)N[C@@H](Cc1ccccc1)C(=O)N[C@@H](CCCCN)C(=O)N[C@@H](CCCCN)C(=O)N[C@@H](C)C(=O)N[C@@H](CO)C(=O)N[C@@H](CCCCN)C(=O)N[C@H](C(=O)N[C@H](C(=O)N1CCC[C@H]1C(=O)N[C@@H](C)C(=O)N[C@H](C(=O)N[C@@H](Cc1ccccc1)C(=O)NCC(=O)N[C@@H](CCCCN)C(=O)N[C@H](C(=O)O)C(C)C)C(C)C)C(C)C)C(C)C)C(C)C [FLGKVFKKASKVVPAVFGKV]
MIC [1]: ≥ 119 µM
MIC [2]: 119 µM (≈ 256 µg/mL)
MIC [3]: > 119 µM

CC(C)C[C@H](NC(=O)[C@H](CCCCN)NC(=O)[C@H](Cc1ccccc1)NC(=O)[C@@H](NC(=O)[C@H](CCCCN)NC(=O)CNC(=O)[C@H](CC(C)C)NC(=O)[C@@H](N)Cc1ccccc1)C(C)C)C(=O)N[C@@H](C)C(=O)N[C@@H](CO)C(=O)N[C@@H](CCCCN)C(=O)N[C@H](C(=O)N[C@@H](Cc1ccccc1)C(=O)N1CCC[C@H]1C(=O)N[C@@H](C)C(=O)N[C@H](C(=O)N[C@@H](Cc1ccccc1)C(=O)NCC(=O)N[C@@H](CCCCN)C(=O)N[C@H](C(=O)O)C(C)C)C(C)C)C(C)C [FLGKVFKLASKVFPAVFGKV]
MIC [1]: 7.33 µM (≈ 16 µg/mL)
MIC [2]: 7.33 µM (≈ 16 µg/mL)
MIC [3]: 14.7 µM (≈ 32 µg/mL)

CC(C)C[C@H](NC(=O)[C@@H](N)Cc1ccccc1)C(=O)NCC(=O)N[C@@H](CCCCN)C(=O)N[C@H](C(=O)N[C@H](C(=O)N[C@@H](CCCCN)C(=O)NCC(=O)N[C@@H](C)C(=O)N[C@@H](CO)C(=O)N[C@@H](CCCCN)C(=O)N[C@H](C(=O)N[C@@H](Cc1ccccc1)C(=O)N1CCC[C@H]1C(=O)N[C@@H](C)C(=O)N[C@H](C(=O)N[C@@H](Cc1ccccc1)C(=O)NCC(=O)N[C@@H](CCCCN)C(=O)N[C@H](C(=O)O)C(C)C)C(C)C)C(C)C)C(C)C)C(C)C [FLGKVVKGASKVFPAVFGKV]
MIC [1]: ≥ 123 µM
MIC [2]: > 123 µM
MIC [3]: > 123 µM

CC(C)C[C@H](NC(=O)[C@H](CCCCN)NC(=O)[C@H](Cc1ccccc1)NC(=O)[C@@H](NC(=O)[C@H](CO)NC(=O)CNC(=O)[C@H](CC(C)C)NC(=O)[C@@H](N)Cc1ccccc1)C(C)C)C(=O)N[C@@H](C)C(=O)N[C@@H](CO)C(=O)N[C@@H](CCCCN)C(=O)N[C@H](C(=O)N[C@@H](Cc1ccccc1)C(=O)N1CCC[C@H]1C(=O)N[C@@H](C)C(=O)N[C@H](C(=O)N[C@@H](Cc1ccccc1)C(=O)NCC(=O)N[C@@H](CCCCN)C(=O)N[C@H](C(=O)O)C(C)C)C(C)C)C(C)C [FLGSVFKLASKVFPAVFGKV]
MIC [1]: 14.9 µM (≈ 32 µg/mL)
MIC [2]: 29.9 µM (≈ 64 µg/mL)
MIC [3]: 29.9 µM (≈ 64 µg/mL)

CC(C)C[C@H](NC(=O)[C@@H](N)Cc1ccccc1)C(=O)NCC(=O)N[C@H](C(=O)N[C@H](C(=O)N[C@@H](Cc1ccccc1)C(=O)N[C@@H](CCCCN)C(=O)N[C@@H](CCCCN)C(=O)N[C@@H](C)C(=O)N[C@@H](CO)C(=O)N[C@@H](CCCCN)C(=O)N[C@H](C(=O)N[C@@H](Cc1ccccc1)C(=O)NCC(=O)N[C@@H](C)C(=O)N[C@H](C(=O)N[C@@H](Cc1ccccc1)C(=O)NCC(=O)N[C@@H](CCCCN)C(=O)N[C@H](C(=O)O)C(C)C)C(C)C)C(C)C)C(C)C)C(C)C [FLGVVFKKASKVFGAVFGKV]
MIC [1]: ≥ 60.1 µM
MIC [2]: 30.1 µM (≈ 64 µg/mL)
MIC [3]: > 120 µM

CC(C)C[C@H](NC(=O)[C@H](CCCCN)NC(=O)[C@H](Cc1ccccc1)NC(=O)[C@@H](NC(=O)[C@@H](NC(=O)CNC(=O)[C@H](CC(C)C)NC(=O)[C@@H](N)Cc1ccccc1)C(C)C)C(C)C)C(=O)N[C@@H](C)C(=O)N[C@@H](CO)C(=O)N[C@@H](CCCCN)C(=O)N[C@H](C(=O)N[C@@H](Cc1ccccc1)C(=O)NCC(=O)N[C@@H](CCCCN)C(=O)N[C@H](C(=O)N[C@@H](Cc1ccccc1)C(=O)NCC(=O)N[C@@H](CCCCN)C(=O)N[C@H](C(=O)O)C(C)C)C(C)C)C(C)C [FLGVVFKLASKVFGKVFGKV]
MIC [1]: 3.69 µM (≈ 8 µg/mL)
MIC [2]: 29.5 µM (≈ 64 µg/mL)
MIC [3]: 3.69 µM (≈ 8 µg/mL)

CC(C)C[C@H](NC(=O)[C@@H](N)Cc1ccccc1)C(=O)NCC(=O)N[C@H](C(=O)N[C@H](C(=O)N[C@@H](Cc1ccccc1)C(=O)N[C@@H](CCCCN)C(=O)N[C@@H](CO)C(=O)N[C@@H](C)C(=O)N[C@@H](CO)C(=O)N[C@@H](CCCCN)C(=O)N[C@H](C(=O)N[C@@H](Cc1ccccc1)C(=O)N1CCC[C@H]1C(=O)N[C@@H](C)C(=O)N[C@H](C(=O)N[C@@H](Cc1ccccc1)C(=O)NCC(=O)N[C@@H](CCCCN)C(=O)N[C@H](C(=O)O)C(C)C)C(C)C)C(C)C)C(C)C)C(C)C [FLGVVFKSASKVFPAVFGKV]
MIC [1]: ≥ 120 µM
MIC [2]: > 120 µM
MIC [3]: > 120 µM

CC(=O)N[C@@H](CCCCN)C(=O)N[C@@H](Cc1ccccc1)C(=O)N[C@@H](CC(C)C)C(=O)N[C@@H](CCCCN)C(=O)N[C@@H](CC(C)C)C(=O)N[C@@H](CCCCN)C(=O)N[C@@H](Cc1c[nH]c2ccccc12)C(=O)N[C@@H](CC(C)C)C(=O)N[C@@H](CCCCN)C(=O)N[C@@H](CO)C(=O)N[C@@H](Cc1c[nH]c2ccccc12)C(=O)N[C@@H](CCCCN)C(=O)N[C@@H](CC(N)=O)C(=O)N[C@@H](Cc1ccccc1)C(=O)N[C@@H](CCCCN)C(N)=O [KFLKLKWLKSWKNFK]
MIC [4]: 6.4 µM (≈ 13 µg/mL)
MIC [5]: 12.5 µM (≈ 25.4 µg/mL)
MIC [6]: 25 µM (≈ 50.9 µg/mL)
MIC [7]: 12.5 µM (≈ 25.4 µg/mL)
MIC [8]: 50 µM (≈ 102 µg/mL)
MIC [9]: 12.5 µM (≈ 25.4 µg/mL)

CC(C)C[C@H](NC(=O)[C@H](CCCN=C(N)N)NC(=O)[C@H](C)NC(=O)[C@@H](NC(=O)[C@H](CCCN=C(N)N)NC(=O)[C@H](CCCN=C(N)N)NC(=O)[C@H](CC(C)C)NC(=O)[C@@H](N)CC(C)C)C(C)C)C(=O)N[C@@H](CC(C)C)C(=O)N[C@@H](CCCCN)C(=O)N[C@@H](CCCN=C(N)N)C(=O)N[C@@H](Cc1ccccc1)C(=O)N[C@@H](C)C(=O)N[C@@H](CCCCN)C(=O)O [LLRRVARLLKRFAK]
MIC [4]: 4.6 µM (≈ 8 µg/mL)
MIC [5]: 1.15 µM (≈ 2 µg/mL)
MIC [7]: 1.15 µM (≈ 2 µg/mL)
MIC [8]: 4.6 µM (≈ 8 µg/mL)

CC[C@H](C)[C@H](NC(=O)[C@H](CCCCN)NC(=O)[C@H](Cc1ccccc1)NC(=O)[C@@H](NC(=O)[C@@H](NC(=O)[C@@H]1CCCN1C(=O)[C@@H](N)CC(C)C)C(C)C)C(C)C)C(=O)N[C@@H](C)C(=O)N[C@@H](CO)C(=O)N[C@@H](CCCCN)C(=O)N[C@H](C(=O)N[C@H](C(=O)N1CCC[C@H]1C(=O)N[C@@H](CO)C(=O)N[C@H](C(=O)N[C@H](C(=O)N[C@@H](CO)C(=O)N[C@@H](CCCCN)C(=O)N[C@H](C(=O)N[C@H](C(=O)O)[C@@H](C)O)[C@@H](C)CC)[C@@H](C)CC)C(C)C)C(C)C)C(C)C [LPVVFKIASKVVPSVISKIT]
MIC [1]: ≥ 120 µM
MIC [2]: > 120 µM

CC[C@H](C)[C@H](NC(=O)[C@H](Cc1ccccc1)NC(=O)[C@H](CCCCN)NC(=O)[C@H](C)NC(=O)[C@@H](NC(=O)[C@H](CO)NC(=O)[C@H](CCCCN)NC(=O)[C@@H](N)CCSC)[C@@H](C)CC)C(=O)N[C@@H](C)C(=O)N[C@@H](CCCCN)C(=O)N[C@H](C(=O)N[C@H](C(=O)N[C@@H](C)C(=O)N[C@@H](CCCCN)C(=O)N[C@@H](CCC(N)=O)C(=O)NCC(=O)N[C@@H](C)C(=O)N[C@@H](CCCCN)C(=O)N[C@@H](CCC(N)=O)C(=O)NCC(=O)O)C(C)C)[C@@H](C)O [MKSIAKFIAKTVAKQGAKQG]
MIC [1]: ≥ 122 µM
MIC [2]: > 122 µM

CC[C@H](C)[C@H](NC(=O)[C@H](CO)NC(=O)[C@H](CC(C)C)NC(=O)CNC(=O)[C@@H](NC(=O)[C@@H](NC(=O)[C@H](CCCCN)NC(=O)[C@@H]1CCCN1)C(C)C)C(C)C)C(=O)N[C@H](C(=O)N[C@H](C(=O)N[C@H](C(=O)N[C@@H](CCCCN)C(=O)N[C@@H](C)C(=O)N[C@@H](CCCCN)C(=O)N[C@H](C(=O)N[C@@H](CO)C(=O)N[C@@H](CO)C(=O)N[C@@H](C)C(=O)N[C@@H](CC(C)C)C(=O)NCC(=O)O)C(C)C)C(C)C)C(C)C)C(C)C [PKVVGLSIVVVKAKVSSALG]
MIC [1]: ≥ 131 µM
MIC [2]: > 131 µM

C[C@H](NC(=O)[C@H](Cc1c[nH]c2ccccc12)NC(=O)[C@H](CCCCN)NC(=O)[C@H](Cc1ccccc1)NC(=O)[C@H](CCCN=C(N)N)NC(=O)[C@H](Cc1c[nH]c2ccccc12)NC(=O)[C@@H](N)CCCN=C(N)N)C(=O)N[C@@H](CCCCN)C(=O)N[C@@H](CCCCN)C(=O)O [RWRFKWAKK]
MIC [4]: ≥ 76.6 µM
MIC [10]: > 76.6 µM
MIC [5]: > 76.6 µM
MIC [8]: > 76.6 µM

CC[C@H](C)[C@H](NC(=O)[C@H](CCCCN)NC(=O)[C@@H](NC(=O)[C@H](C)NC(=O)[C@@H](NC(=O)[C@H](CC(C)C)NC(=O)[C@H](CCCCN)NC(=O)[C@H](C)NC(=O)[C@@H](NC(=O)[C@@H](NC(=O)CNC(=O)[C@@H](NC(=O)[C@H](CC(C)C)NC(=O)[C@@H](N)[C@@H](C)O)C(C)C)C(C)C)C(C)C)C(C)C)[C@@H](C)O)C(=O)NCC(=O)N[C@@H](CO)C(=O)N[C@@H](CO)C(=O)N1CCC[C@H]1C(=O)N[C@@H](CCCN=C(N)N)C(=O)N[C@@H](C)C(=O)O [TLVGVVAKLVATKIGSSPRA]
MIC [1]: ≥ 130 µM
MIC [2]: > 130 µM

CC(C)C[C@H](NC(=O)[C@H](CCCCN)NC(=O)[C@@H]1CCCN1C(=O)[C@H](CC(C)C)NC(=O)[C@H](CC(C)C)NC(=O)[C@@H]1CCCN1C(=O)[C@H](CCCCN)NC(=O)[C@H](CC(C)C)NC(=O)[C@H](CCCCN)NC(=O)[C@@H]1CCCN1C(=O)[C@H](CC(C)C)NC(=O)[C@H](CC(C)C)NC(=O)[C@H](CC(C)C)NC(=O)[C@H](CCCCN)NC(=O)[C@H](CC(C)C)NC(=O)[C@H](CC(C)C)NC(=O)[C@H](CCCCN)NC(=O)[C@@H](N)Cc1ccc(O)cc1)C(N)=O [YKLLKLLLPKLKPLLPKL]
MIC [10]: > 79.7 µM
MIC [7]: 19.9 µM (≈ 42.4 µg/mL)
MIC [11]: 23.3 µM (≈ 49.7 µg/mL)
